Assay results taken from patent US20110319287A1, “MODULATOR ASSAY” (ADDEX PHARMA S.A., priority 2009, published 2011).
Peptide text beside a SMILES is read from it. * marks the point of attachment. Cbz = O=C(OCc1ccccc1)*; CH2F = FC*

Assays:
[1] = tested on: TNF-induced relocalisation of EYFP-TRADD (TNFR1-containing complex I) in HeLa cells; assay: TNF-mediated relocation of fluorescently tagged TRADD in Clone #49-E2 HeLa cells, 384-well (Example 2); type: cell-based, human; settings: for selectivity: relocalisation of the reporter molecule EYFP-TRADD effected by other compounds or molecules: added instead of TNF, FIG. 12; for effect of downstream signalling inhibitors on detectable EYFP-TRADD clusters: increasing concentrations, in the presence of TNF, FIGS. 14-16
Procedure: The following experimental procedure to detect the reporter molecule in the presence of absence of a “test” compound (or molecule, as described below) was conducted.
On day 1, 10^3 cells per well were plated in thin glass bottom 384 wells plate in 50 μl of culture media (DMEM glutamax, 10% FBS, peni-strep, geneticin, hygromycin). The cells were incubated overnight at 37° C. On day 2, media was aspirated, and 35 μl of warm DMEM, 2, 5% FBS, HEPES 10 mM added. Then, 15 μl of 4× the test compound diluted in DMEM, 2, 5% FBS, HEPES 10 mM was added to cells using a Biomek laboratory automation workstation (Beckman-Coulter). This was incubated at room temperature for 1.5 min. […] The cells were washed three times with PBS 1× using an Embla 384 Cell Washer (Molecular Devices). Cells were fixed by adding PBS 1×, 5% PFA+Hoescht 0.2 μg/ml using a Multidrop 384 dispensor (Thermo Scientific; 30 μl/well) followed by an incubation for 20 min at room temperature in the dark. After a further three washes of the cells with PBS 1× using the Embla 384 Cell Washer, 60 μl per well of PBS 1×, 1% peni-strep was added. The plate was covered with a transparent sealing film. Readings were then taken on the Scientific Cellomics ArrayScan HCS Reader automated microscope system as used in Example 1.

[2] = tested on: TNF-mediated relocation of TRADD-EYFP in HeLa cells; assay: TNF-mediated relocation of TRADD-EYFP / EYFP-TRADD in stably transfected HeLa cells (Example 1, clone HeLa/TRADD-EYFP#49); type: cell-based, human; settings: for blocking of TNF-induced relocalisation of fluorescently tagged TRADD to punctuate structures: in the presence of TNF, R-7050 100 μM with 1000 ng/ml TNF (FIG. 6), etanercept FIG. 9
Text: The pTREhyg-EYFP-TRADD and pTREhyg-TRADD-EYFP expression vectors were stably transfected using PolyFect® Transfection Reagent (Qiagen), according to the manufacturer's protocol, into HeLa Tet-On Cell Line cells (Clontech Laboratories, Inc.). This cell line is a neomycin resistant human cervical epithelioid carcinoma cell line transformed with a modified version of pTet-On which has a nuclear localization signal fused to the N-terminus (pUHD172-1neo).
Intracellular location of EYFP-TRADD and TRADD-EYFP was determined using fluorescence microscopy. Using a fluorescence microscope, cells are illuminated with light of a specific wavelength which is absorbed by the EYFP, causing it to emit longer wavelengths of light (of a different colour than the absorbed light). The illumination light is separated from the much weaker emitted fluorescence through the use of an emission filter, and an image of the cell created.
We then used an automated microscope system (a Thermo Scientific Cellomics ArrayScan HCS Reader) as an automated fluorescence microscopic imaging system designed for high content screening and high content analysis. The instrument features include optics by Carl Zeiss, broad white-light source, 12-bit cooled CCD camera, and controller software. The instrument is designed to work with image analysis modules (Thermo Scientific BioApplications) that automatically convert images into numeric data that capture changes in cell size, shape, intensity, and other properties. The system allows: high content screening, analysis of cells containing fluorescent reporter molecules in an array of locations, treating the cells in the array of locations with one or more test compounds, imaging numerous cells in each location with fluorescence optics, and converting the optical information into digital data. This digital data was then used to determine the positioning, distribution, environment or activity of the fluorescently labelled reporter molecules (EYFP-TRADD or TRADD-EYFP) in the transfected HeLa cells and the distribution of the cells. This information was analysed in terms of a positive, negative or null effect of each test compound being examined. This system allowed differences between untreated and treated cells to be measured, for example by counting the number of fluorescent spots (rather than diffuse fluorescence) in cells.
Using GraphPad Prism (v. 4.01, San Diego, Calif., USA), a dose-response curve was generated (FIG. 7). Percentage responders (y-axis values in FIGS. 7 and 8) were determined as the number of cells with more than five spots, which is an alternative but qualitatively similar measurement to spot count per cell (see below).

[3] = molecular target: T1, TL1A-activated DR3 receptor (Homo sapiens, UniProt Q93038, P167L); assay: TL1A-induced TRADD-EYFP relocation in HeLa TRADD DR3 recombinant cells (Example 3); type: cell-based; settings: FIG. 17
T1 construct: (N); expressed in transfected cells; host or cells: HeLa Tet-On cells stably expressing TRADD-EYFP, transfected with pTRE2-DR3 (HeLa TRADD DR3)
T1 sequence (Q93038 with tags, fused parts or gaps P167L): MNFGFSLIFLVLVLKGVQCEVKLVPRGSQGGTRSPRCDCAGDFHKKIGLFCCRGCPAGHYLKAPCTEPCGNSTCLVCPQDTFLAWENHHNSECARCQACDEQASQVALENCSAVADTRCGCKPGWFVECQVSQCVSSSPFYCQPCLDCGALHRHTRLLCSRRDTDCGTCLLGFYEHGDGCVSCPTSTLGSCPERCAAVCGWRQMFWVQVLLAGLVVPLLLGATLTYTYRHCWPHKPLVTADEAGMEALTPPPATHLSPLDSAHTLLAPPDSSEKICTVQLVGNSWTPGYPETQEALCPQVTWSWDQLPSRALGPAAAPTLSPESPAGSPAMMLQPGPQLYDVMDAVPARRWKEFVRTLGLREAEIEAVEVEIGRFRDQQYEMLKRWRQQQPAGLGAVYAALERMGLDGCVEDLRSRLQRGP
Text: (§1) In a further example of the present invention, a method involving the TL1A-activated DR3 receptor was developed. The TRADD-EYFP HeLa clones comprising the TRADD-EYFP reporter molecule transfected into HeLa cells as described in Example 1 was employed. The DR3 receptor (cDNA sequence shown in SEQ ID NO: 19 and encoded protein shown in SEQ ID NO: 20) which had been cloned in the vector pCR3.1 (Invitrogen) was transferred into the vector pTre2 (Clontech) using the Gateway® cloning technique with the primers Attb1 Forward primer (SEQ ID NO: 21) and Attb2 Reverse primer (SEQ ID NO: 22), yielding a pTRE2-DR3 expression vector (SEQ ID NO: 23). This expression vector was then transfected into the TRADD-EYFP HeLa clones to produce a double transformants designated HeLa TRADD DR3.
(§2) Monitoring and quantification of the TRADD-EYFP reporter molecule was conducted as described in Examples 1 and 2 above. […] The data of FIG. 17 are depicted graphically in FIG. 18.

[4] = tested on: TNF-induced TRADD relocalisation in HeLa TRADD DR3 cells; assay: TNF-induced TRADD-EYFP relocation in HeLa TRADD DR3 recombinant cells (Example 3); type: cell-based, human; settings: in the presence of 100 ng/ml TNF; FIG. 19
Text: as §1, §2

## TRAIL: recombinant human TRAIL from Millipore, Cat N° GF092
[1]
  selectivity: relocalisation of the reporter molecule EYFP-TRADD effected by other compounds or molecules: not effected

## O=C(c1ccc(Nc2nccc(-c3cc4ccccc4s3)n2)cc1)N1CCC(N2CCCC2)CC1 [IKK16]
[1]
  effect of downstream signalling inhibitors on detectable EYFP-TRADD clusters: no change in detectable EYFP-TRADD clusters

## IL1β: Recombinant Human IL1β from Peprotech, Cat N° 200-01B
[1]
  selectivity: relocalisation of the reporter molecule EYFP-TRADD effected by other compounds or molecules: not effected

## etanercept
[2]; TNF dose=300 ng/ml, FIG. 9
  IC50: 2740 nM
[2]
  blocking of TNF-induced relocalisation of fluorescently tagged TRADD to punctuate structures: block
[1]; FIG. 13
  blocking of TNF-induced relocalisation of EYFP-TRADD: blocks
[3]; in the presence of 300 ng/ml TL1A
  dose-dependent inhibition of TL1A-induced relocalisation: not
[4]
  IC50 on TNF-induced relocalisation: 0.0538 µg/mL
  dose-dependent inhibition of TNF-induced relocalisation: dose-dependently inhibited

## Polyinosinic-polycytidylic acid potassium salt [Poly I:C]
[1]
  selectivity: relocalisation of the reporter molecule EYFP-TRADD effected by other compounds or molecules: not effected

## CC[C@H](C)[C@H](NC(=O)OCc1ccccc1)C(=O)N[C@@H](CCC(=O)OC)C(=O)N[C@H](C(=O)N[C@@H](CC(=O)OC)C(=O)CF)[C@@H](C)O [Z-IETD-FMK] (Cbz-IE(OMe)TD(OMe)-CH2F)
[1]
  effect of downstream signalling inhibitors on detectable EYFP-TRADD clusters: no dissociation of clusters

## TL1A: Recombinant Human TL1A/TNFSF15 from R&D Systems, Cat N° 1319-TL
[1]
  selectivity: relocalisation of the reporter molecule EYFP-TRADD effected by other compounds or molecules: not effected
[3]; HeLa TRADD DR3 cells
  calculated EC50 of TL1A (TRADD-EYFP relocalisation to spots): 0.0043 µg/mL

## C=C1[C@@H](C)[C@H]2[C@H](Cc3ccccc3)NC(=O)[C@]23[C@H](OC(C)=O)/C=C/[C@@](C)(O)C(=O)[C@@H](C)C/C=C/[C@H]3[C@@H]1O [cytochalasin D]
[1]
  effect of downstream signalling inhibitors on detectable EYFP-TRADD clusters: a reduction in detectable EYFP-TRADD clusters

## FC(F)(F)c1nnc2c(Sc3ccccc3)nc3ccc(Cl)cc3n12 [R-7050]
[2]
  blocking of TNF-induced relocalisation of fluorescently tagged TRADD to punctuate structures: blocked
[2]; on 1000 ng/ml TNF, FIG. 8
  IC50: 2100 nM
